# Laboratory results: patent US20050130197A1, “Homogeneous fluorescence polarization assay for high throughput screening” (priority 2003, published 2005)
# Like-named read-outs stand apart in the source and are kept apart here. Where a SMILES comes first, the peptide text is derived from it. Where no end group is shown, it is not given here. [ ]: non-standard residue; d: D form. NMeF = CN[C@@H](Cc1ccccc1)C(=O)O
# Experiments:
# human NPFF2 receptor [1] = target: T1, human NPFF2 receptor (Homo sapiens, UniProt Q9Y5X5); assay: Fluorescence polarization (FP) competition binding assay, TAMRA-NPFF tracer, 0.1% Pluronic F-127; conditions: for affinity to the TAMRA-NPFF binding site / binding to NPFF2 receptor: 10 μM, FP assay; for Ki: FP competition binding, TAMRA-NPFF tracer, human NPFF2 receptor membrane preparation, means ± S.E. of three separate experiments; for Ki for inhibiting TAMRA-NPFF binding (in words): FP displacement curves
# T1 construct: purchased Euroscreen s.a; (Brussels, Belgium)
# Experimental: Human NPFF2 receptor membrane homogenates were diluted in a binding buffer (50 mM HEPES buffer, pH 7.4 and various concentrations of detergents) to the membrane concentration required. In general, the binding assay was performed in a final volume of 40 μl: 20 μl of displacing ligand, 10 μl of fluorescent tracer, and 10 μl of diluted receptor membrane preparation (3.6-4.2 ug protein/well depending on the assay), which were added sequentially. The reaction was incubated at room temperature for 0.5-24 h before FP was measured depending on each experiment.
# FP binding data were analyzed and fitted using GraphPad Prism® software (GraphPad Software, Inc., San Diego, Calif.). Competitive binding data was fit to a one-site competitive binding equation using nonlinear regression curve fitting. IC50 values were determined by nonlinear regression analysis of the inhibition curves. Data points in the displacement curves and in the graphs of DMSO, nonionic detergents, Chicago Sky Blue 6B and tartrazine consist of an average of 4-6 repetitions. All error bars represent ±1 standard deviation unit of the spread of the data except for displacement curves, where the error bars represent ±SEM. mP is defined by the following equation: mP=1000×(I∥−I⊥)/(I∥+I⊥) where mP=milli-polarization, I∥=parallel component of the emitted light, and I⊥=perpendicular component of the emitted light. Assay precision was assessed by calculating the Z′ value: Z′=1−[(3*σbound)+(3*σdisplaced)/|(mPbound−mPdisplaced)|] where σ is the standard deviation in the signal, mP: the subscript “bound” corresponds to the signal obtained in the absence of a displacing substance; and the subscript “displaced” corresponds to the signal of a completely displaced ligand (Zhang, J-H. et al., J. Biomol. Screen., (1999) 4, 67-73; Banks, P. et al., J. Biomol. Screen., (2002) 7, 111-117). The denominator of the equation calculates the specific binding expressed in the absolute value of mP difference, and the numerator calculates the precision in both bound and displaced signals. Background correction was done after each analysis by subtracting blank parallel and perpendicular intensities from the respective intensities. According to Z′ value model, the Z′ values of above 0.5 indicate excellent assays.
# human NPFF2 receptor [2] = target: T1, human NPFF2 receptor; conditions: data from Eur. J. Pharmacol. 451: 245-256 (2002); read-out: [125I]Ligand Filtration Human Ki (c); cited from earlier work
# human NPFF2 receptor [3] = target: T1, human NPFF2 receptor; conditions: data from J. Biol. Chem. 275: 39324-39331 (2000); read-out: [125I]Ligand Filtration Human Ki (b); cited from earlier work
# [4] = target: T2, human NPFF2 receptor membranes (Homo sapiens, UniProt Q9Y5X5); assay: In vitro functional FP assay with GDP and GTPγS (GTP binding assay); type: biochemical; conditions: one agonist fixed at 2-3×IC50, other ligand varied; 3 μM GDP and 5 μM GTPγS
# T2 construct: purchased Euroscreen s.a; (Brussels, Belgium)
# T2 sequence (Q9Y5X5 whole entry): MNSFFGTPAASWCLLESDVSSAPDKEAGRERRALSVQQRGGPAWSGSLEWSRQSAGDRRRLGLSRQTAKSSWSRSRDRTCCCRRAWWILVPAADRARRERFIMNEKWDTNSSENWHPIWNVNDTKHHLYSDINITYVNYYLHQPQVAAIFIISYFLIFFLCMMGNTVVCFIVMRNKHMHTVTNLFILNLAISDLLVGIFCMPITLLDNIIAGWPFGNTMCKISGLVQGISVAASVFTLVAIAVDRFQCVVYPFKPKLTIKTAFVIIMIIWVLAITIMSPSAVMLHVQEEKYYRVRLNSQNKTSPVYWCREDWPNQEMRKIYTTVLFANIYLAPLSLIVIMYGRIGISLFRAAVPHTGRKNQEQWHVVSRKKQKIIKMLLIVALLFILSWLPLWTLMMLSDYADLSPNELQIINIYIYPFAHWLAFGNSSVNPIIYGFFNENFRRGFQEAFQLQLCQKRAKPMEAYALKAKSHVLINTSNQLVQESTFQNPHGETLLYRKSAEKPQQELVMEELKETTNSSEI
# Experimental: The binding assay was performed in a final volume of 40 μl as follows: 10 μl of different concentrations of displacing ligand, 10 μl of tracer, and 10 μl of diluted receptor membrane preparation (3.6-4.2 ug protein/well), which were added sequentially. After 15 min, 10 μl of the binding buffer with 3-10 μM GDP and 5-50 μM GTPγS was added. The reaction was incubated at room temperature for 15-120 min.
# The concentrations of the other agonist increased from 0.0019 nM to 9.0 μM per well.
# Next a combination of an agonist with a fixed concentration and an antagonist with varying concentrations was tested under the same conditions.
# T1 sequence (Q9Y5X5 whole entry): as above
Compound,affinity to the TAMRA-NPFF binding site / binding to NPFF2 receptor (human NPFF2 receptor [1]),Ki (human NPFF2 receptor [1]),Ki (human NPFF2 receptor [2]),Ki (human NPFF2 receptor [3]),Ki for inhibiting TAMRA-NPFF binding (in words) (human NPFF2 receptor [1]),further results
COc1cc(CNC(=O)CCCC/C=C/C(C)C)ccc1O [capsaicin],little or no affinity,–,–,–,–,–
"CC(C)C[C@H](NC(=O)[C@H](N)Cc1ccc(O)cc1)C(=O)N(C)[C@@H](Cc1ccccc1)C(=O)N[C@@H](CCC(N)=O)C(=O)N1CCC[C@H]1C(=O)N[C@@H](CCC(N)=O)C(=O)N[C@@H](CCCN=C(N)N)C(=O)N[C@@H](Cc1ccccc1)C(N)=O [[D-Tyr^1(NMe)Phe^3]NPFF, [D-Tyr^1, (N-Me)Phe^3]NPFF] (H-[dY]L[NMeF]QPQRF-NH2)",–,0.46 ± 0.05 nM,0.18 ± 0.04 nM,–,–,–
NC(N)=NCCC[C@@H](NC(=O)C(c1ccccc1)c1ccccc1)C(=O)NCc1ccc(O)cc1 [BIBP3226],–,96 ± 13 nM,84 ± 12 nM,1260 ± 111 nM,–,affinity state in in vitro functional assays [4]: monophasic affinity state
CC(COc1ccccc1)N(CCCl)Cc1ccccc1 (stereo not drawn) [phenoxybenzamine],little or no affinity,–,–,–,–,–
"CC(C)C[C@H](NC(=O)[C@H](N)Cc1ccc(O)cc1)C(=O)N(C)[C@@H](Cc1ccccc1)C(=O)N[C@@H](CCC(N)=O)C(=O)N1CCC[C@H]1C(=O)N[C@@H](CCC(N)=O)C(=O)N[C@@H](CCCNC(=N)N)C(=O)N[C@@H](Cc1ccccc1)C(N)=O [[D-Tyr^1(NMe)Phe^3]NPFF, [D-Tyr^1, (N-Me)Phe^3]NPFF] (H-[dY]L[NMeF]QPQRF-NH2)",–,–,–,–,nanomolar range,–
APSEPHHPGDQATQDQLAQYYSDLYQYITFVTRPRF-NH2 [Frog PP],–,–,–,40 ± 11 nM,nanomolar range,assay window (FIG. 8) (human NPFF2 receptor [1]; 0.1% trifluoroacetic acid added to assay buffer): 100 mP
